Data from patent publication US20100184809A1, “Heterocyclic FXR Binding Compounds” (PHENEX PHARMACEUTICALS AG, priority 2006, published 2010).
Values after ≈ are worked out from the molar mass of the structure shown. Like-named read-outs stand apart in the source and are kept apart here.

Columns and labels:
PAMPA permeability assay = assay type: in vitro ADME; settings: % of compound found in the receiver compartment after 16 hours; PBS pH 7.4, 5% DMSO, 23° C.
Protocol: Artificial membrane permeability was determined as follows: Tested compounds were dissolved to 10 mM in 100% DMSO. Permeability of compounds was measured in PBS (pH 7.4), 5% DMSO at 23° C. Safire (Tecan) plate reader was used for measurement the UV/Vis absorption. Protocol: Dilute stocks of tested compounds and controls with PBS to 1.67 mM and mix well by pipeitting, add 280 μl of PBS, 5% DMSO to acceptor plate, add 5 μl of 2% L-α-Phosphatidylcholine suspension in dodecane to the membrane of donor plate, Immediately add 98 μl of PBS to donor plate and make the sandwich with acceptor plate. Add 42 μl of tested compounds and controls dilutions to […], cover the plate, place into camera and incubate for 16 hours. Make the equilibrium plate, add 225 μl of PBS, 3,7% DMSO and 25 μl of tested compounds and controls dilutions to UV plate. After 16 hours pull the donor plate out and transfer 250 μl from acceptor plate to UV plate. Scan UV plate on Safire (Tecan) plate reader from […]. Permeability is reported in % of compound found in the receiver compartment after the incubation period.

[1] = Aqueous solubility assay, Protocol A, nephelometry method; assay type: physicochemical; settings: PBS with 5% DMSO, aqueous with cosolvent or surfactant or cyclodextrin, kinetic from dmso stock, PBS pH 7.4, 5% DMSO
Protocol: Aqueous solubility of compounds was determined by nephelometry or by the shake-flask method as follows:
Protocol A, nephelometry method:
Solubility of compounds was measured in PBS (pH 7.4), 5% DMSO at 23° C. Nepheloskan Ascent (Thermo Electron Corporation) nephelometer was used for measurement of light scattering. Tested compounds were dissolved in DMSO to 10 mM. Prior to measurement the compounds were further diluted with PBS in the wells to final compound concentrations of 100, 70, 50, 35, 25, 17, 12 and <10 μg/ml.
The plates were incubated at room temperature for 24 hours to reach equilibrium and the scattered light was measured. Assay validation: Aqueous solubility of acetylsalicylic acid was determined to validate the assay.
The following compounds of Table 2 exemplify such solubility with “−−” meaning solubility<2 μM, “+” meaning 2 μM solubility 100 μM and “++” meaning solubility

[2] = Mouse microsomal stability assay; assay type: in vitro ADME; settings: pH 7.4; mouse liver microsomes, 37° C.
Protocol: In vitro assays were performed to evaluate the metabolic stability of test items in liver microsomes originating from mouse. Preparation of working standards of test items: Working solutions were prepared for each calibration level by appropriate dilution of the corresponding stock solution, depending on each compound's solubility in acetonitrile or acetonitrile/water. Calibration standards were prepared by spiking 196 μl standard matrix with 4 μl of the corresponding working solution. The standard matrix consists of 0.15 mg/ml of microsomal protein in phosphate buffer (100 mM pH 7.4), the final standard solutions contain 2% acetonitrile. The samples and standard solutions were extracted with ethyl acetate, isolation of the compounds was performed by addition of 600 μl ethyl acetate containing the internal standard (0.1 μM) to 200 μl sample and calibration standard. After vigorously shaking (10 minutes) and centrifugation (5000 g) the aqueous phase was separated by freezing in an acetone/dry ice bath and the organic phase is evaporated to dryness using a vacuum centrifuge. Samples were reconstituted in 200 μl acetonitrile/water mix (1:1 v/v) and subsequently subjected to LC-MS/MS. The incubation solution (180 μl) consisted of 90 μl of a microsomal suspension of 0.33 mg/ml of protein in phosphate buffer 100 mM pH 7.4 and 90 μl NADP-regenerating system. The reaction was initiated by the addition of 20 μl of test compound (in 20% acetonitrile) to the preincubated microsomes/buffer mix at 37° C. 200 μl samples were removed from the incubation after 0, 5, 10, and 30 minutes and processed for ethyl acetate extraction as described above. Negative controls using boiled microsomes (boiling water bath, 25 minutes) without regenerating system were run in parallel. The amount of compound in the samples is expressed as percentage of remaining compound compared to time point zero (=100%). These percentages were plotted against the corresponding time points. Intrinsic clearance (CLint) and half-life (t1/2) estimates were determined using the rate of parent disappearance and following formula (1) and (2). (1) CLint=(−k)×V×fu. (2) t1/2=In2/−k. Where CLint=intrinsic clearance [μl/min/mg protein], t1/2=half life [min], k=slope from the linear regression of log [test compound] versus time plot [1/min]. V=6666.7; fu=unbound fraction in the blood. Applying this protocol gave microsomal stabilities for examples and reference compounds as listed below in Table 9: […]

[3] = Aqueous solubility assay, Protocol B, shake-flask method; assay type: physicochemical; settings: aqueous buffer, 10 mM PBS buffer pH 7.4, 1% MeOH, room temperature, read-out: Aqueous solubility pH 7.4 (μM) (±standard deviation), shake-flask method
Protocol: Protocol B, shake-flask method:
Sample preparation: Sample and standard solution preparation is performed by mixing equal volumes of acetonitrile containing the internal standard (1 μM final concentration) with sample and calibration standard solutions (100 μl). After vigorously shaking (10 seconds) the samples are centrifuged (6000 g) for 5 minutes at 20° C. Aliquots of the particle-free supernatants are transferred to 200 μl sample vials and subsequently subjected to LC-MS/MS. Assay procedure: Test concentration was 100 μM in 10 mM PBS buffer pH 7.4 with a final MeOH concentration of 1%. The volume of the incubation solution was 500 μl. Depending on each compound's solubility in MeOH, the stock concentration and the incubation concentration was adapted. The test solutions in quadruplicates were shaken at 300 rpm over a 20 hours period at room temperature, followed by centrifugation at 20000 g for 30 minutes to separate the solid phase. 100 μl of particle free sample are added to 100 μl acetonitrile containing the internal standard. The aqueous solubility of the compounds was determined by measuring the concentration of the PBS buffer supernatant by HPLC-MS/MS.

[4] = The Merck index, 10th edition; cited from earlier work

CC(C)c1onc(-c2c(Cl)cccc2Cl)c1CCc1ccc(Oc2ccc(C(=O)O)cc2)cc1 [Compound A, reference compound]
PAMPA Permeability (PAMPA permeability assay): 32%
solubility at 24 h ([1]; 23° C., 24 hours, read-out: Aqueous solubility pH 7.4): 2 to 100 µM
half-life [2]: 22 min
microsomal CLint [2]: 207 µL/min/mg
solubility at 20 h [3]: 72.4 µM (≈ 35.9 µg/mL)

CC(=O)Oc1ccccc1C(=O)O [acetylsalicylic acid, reference compound]
solubility at 24 h ([1]; 23 °C, at the day of experiment, read-out: Aqueous solubility (assay validation)): > 100 µg/mL
Aqueous solubility, reported literature value [4]: at least 2,17 mg/ml
